Laboratory results: patent US6348211B1, “Compositions and methods for treatment of attention deficit disorder and attention deficit/hyperactivity disorder with methylphenidate” (Noven Pharmaceuticals, Inc., priority 1997, dated 2002)

What was measured:
[1] = Degradation of methylphenidate in topical composition in the presence of acid functional groups; format: physicochemical; conditions: with every 1% increase by weight in acid functional component of the topical composition
Text: It has been discovered that methylphenidate, and in particular the base form, can be unstable and undergoes degradation in the presence of acid functional groups which are contained in adhesives, enhancers, excipients and other components of the topical composition. The major degradant/metabolite appears to be ritalinic acid, which increases about ten fold with every 1% increase by weight in such acid functional component. Such degradation can greatly reduce the amount of the active enantiomer during storage of the topical composition, thus reducing the amount of active methylphenidate available for drug delivery.

[2] = among the four enantiomers of methylphenidate; cited from earlier work

| SMILES | increase of major degradant ritalinic acid [1] | activity of enantiomer [2] |
| --- | --- | --- |
| COC(=O)C(c1ccccc1)C1CCCCN1 (centres unmarked) [Methylphenidate] | about ten fold |  |
| COC(=O)[C@H](c1ccccc1)[C@H]1CCCCN1 [d-threo-methylphenidate] |  | significantly active |
